Data as given in ChEMBL document CHEMBL5696442, “Discovery of type II inhibitors of TGFβ-activated kinase 1 (TAK1) and mitogen-activated protein kinase kinase kinase kinase 2 (MAP4K2)” (J Med Chem, 2015).
Calls of active or inactive are those of the source. The calls are words filed in the database; no cut-off is given here.

Key:
[1] = target: Calcium/calmodulin-dependent protein kinase type II subunit gamma (Homo sapiens) (UniProt Q13555); assay: Inhibition of CaMK2g Lys1 labeling site harbouring TSTQEYAAKIINTKK in human Huh-7 cell lysate at 1 uM by KiNativ Profiling analysis relative to control; format: subcellular
[2] = target: Cyclin-dependent kinase 12 (Homo sapiens) (UniProt Q9NYV4); assay: Inhibition of CRK7 Lys2 labeling site in human Huh-7 cell lysate at 1 uM by KiNativ Profiling analysis relative to control; format: subcellular
[3] = target: T1, Dual specificity mitogen-activated protein kinase kinase 6 (Homo sapiens) (UniProt P52564); assay: Inhibition of MAP2K6 Lys1 labeling site in human A-375 cells at 5 uM by KiNativ Profiling analysis relative to control; format: cell-based
T1 sequence (whole entry): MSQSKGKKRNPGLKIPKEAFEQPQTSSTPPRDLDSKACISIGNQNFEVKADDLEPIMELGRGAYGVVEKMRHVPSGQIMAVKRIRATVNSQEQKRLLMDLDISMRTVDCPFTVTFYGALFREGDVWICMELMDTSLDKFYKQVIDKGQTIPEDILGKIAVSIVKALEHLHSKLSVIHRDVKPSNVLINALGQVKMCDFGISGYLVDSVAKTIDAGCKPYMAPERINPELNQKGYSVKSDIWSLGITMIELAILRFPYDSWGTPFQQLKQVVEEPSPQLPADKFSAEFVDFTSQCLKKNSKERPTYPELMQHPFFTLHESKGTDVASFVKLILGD

[4] = target: Phosphatidylinositol 4-kinase beta (Homo sapiens) (UniProt Q9UBF8); assay: Inhibition of PI4KB ATP labeling site harbouring VPHTQAVVLNSKDK in human A-375 cells at 0.05 uM by KiNativ Profiling analysis relative to control; format: cell-based
[5] = target: Calcium/calmodulin-dependent protein kinase type 1D (Homo sapiens) (UniProt Q8IU85); assay: Inhibition of CAMK1D (unknown origin) at 1 uM by Ambit Kinomescan binding assay relative to control; values are per cent of control
[6] = target: Mitogen-activated protein kinase 3 (Homo sapiens) (UniProt P27361); assay: Inhibition of ERK1 (unknown origin) at 10 uM by Ambit Kinomescan binding assay
Chain of Mitogen-activated protein kinase 3 (Homo sapiens) (P27361 whole entry, the tested form may be a part): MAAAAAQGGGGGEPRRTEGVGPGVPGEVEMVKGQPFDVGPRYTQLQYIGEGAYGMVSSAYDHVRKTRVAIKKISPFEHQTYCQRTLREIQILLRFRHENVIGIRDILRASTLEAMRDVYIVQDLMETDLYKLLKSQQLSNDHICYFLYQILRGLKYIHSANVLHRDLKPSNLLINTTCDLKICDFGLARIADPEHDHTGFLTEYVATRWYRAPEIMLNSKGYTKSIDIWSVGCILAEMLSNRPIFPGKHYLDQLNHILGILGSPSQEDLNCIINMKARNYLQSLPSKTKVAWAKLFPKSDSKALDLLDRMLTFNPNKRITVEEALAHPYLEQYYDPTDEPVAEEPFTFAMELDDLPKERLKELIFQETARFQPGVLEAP

[7] = target: Ribosomal protein S6 kinase alpha-5 (Homo sapiens) (UniProt O75582); assay: Inhibition of C-terminal RPS6KA5 kinase domain 2 (unknown origin) at 10 uM by Ambit Kinomescan binding assay
[8] = target: T2, NUAK family SNF1-like kinase 2 (Homo sapiens) (UniProt Q9H093); assay: Inhibition of SNARK (unknown origin) at 10 uM by Ambit Kinomescan binding assay
T2 sequence (whole entry): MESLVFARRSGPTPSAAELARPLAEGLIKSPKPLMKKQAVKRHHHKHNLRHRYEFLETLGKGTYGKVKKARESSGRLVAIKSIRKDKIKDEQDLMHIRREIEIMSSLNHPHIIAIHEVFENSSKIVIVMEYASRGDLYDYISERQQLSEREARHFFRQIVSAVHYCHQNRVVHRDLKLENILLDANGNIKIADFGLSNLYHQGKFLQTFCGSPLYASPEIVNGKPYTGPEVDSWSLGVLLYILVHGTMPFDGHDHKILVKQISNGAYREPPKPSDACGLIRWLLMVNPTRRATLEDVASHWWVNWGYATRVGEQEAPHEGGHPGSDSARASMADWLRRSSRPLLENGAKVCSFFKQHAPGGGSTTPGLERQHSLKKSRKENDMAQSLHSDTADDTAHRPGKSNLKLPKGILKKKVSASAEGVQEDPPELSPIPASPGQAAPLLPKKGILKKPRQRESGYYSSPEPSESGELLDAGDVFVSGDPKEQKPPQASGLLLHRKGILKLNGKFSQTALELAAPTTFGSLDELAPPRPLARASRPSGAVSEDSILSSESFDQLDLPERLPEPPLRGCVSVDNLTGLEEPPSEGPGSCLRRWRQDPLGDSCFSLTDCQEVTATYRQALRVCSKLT

[9] = target: TGF-beta receptor type-1 (Homo sapiens) (UniProt P36897); assay: Inhibition of TGFBR1 (unknown origin) at 10 uM by Ambit Kinomescan binding assay
[10] = target: Dual specificity mitogen-activated protein kinase kinase 2 (Homo sapiens) (UniProt P36507); assay: Inhibition of MAP2K2 Lys1 labeling site in human A-375 cells at 5 uM by KiNativ Profiling analysis relative to control; format: cell-based
Chain of Dual specificity mitogen-activated protein kinase kinase 2 (Homo sapiens) (P36507 whole entry): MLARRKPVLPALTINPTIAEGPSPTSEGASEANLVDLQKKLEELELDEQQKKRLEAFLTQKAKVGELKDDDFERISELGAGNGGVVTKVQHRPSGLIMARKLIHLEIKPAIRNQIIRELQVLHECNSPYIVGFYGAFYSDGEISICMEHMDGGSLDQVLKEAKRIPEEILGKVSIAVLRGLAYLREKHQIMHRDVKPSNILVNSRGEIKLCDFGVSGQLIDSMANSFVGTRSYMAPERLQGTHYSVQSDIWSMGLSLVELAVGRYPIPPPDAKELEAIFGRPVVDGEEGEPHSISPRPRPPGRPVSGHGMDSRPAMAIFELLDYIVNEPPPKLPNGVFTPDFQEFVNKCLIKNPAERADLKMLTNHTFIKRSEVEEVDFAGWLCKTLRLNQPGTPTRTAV

[11] = target: Tyrosine-protein kinase ABL1 (Homo sapiens, UniProt P00519); assay: Inhibition of ABL ACT labeling site in human A-375 cells at 0.05 uM by KiNativ Profiling analysis relative to control; format: cell-based
[12] = target: T3, Serine/threonine-protein kinase Chk1 (Homo sapiens) (UniProt O14757); assay: Inhibition of CHK1 K2 labeling site in human Huh-7 cells at 10 uM by KiNativ Profiling analysis relative to control; format: cell-based
T3 sequence (whole entry): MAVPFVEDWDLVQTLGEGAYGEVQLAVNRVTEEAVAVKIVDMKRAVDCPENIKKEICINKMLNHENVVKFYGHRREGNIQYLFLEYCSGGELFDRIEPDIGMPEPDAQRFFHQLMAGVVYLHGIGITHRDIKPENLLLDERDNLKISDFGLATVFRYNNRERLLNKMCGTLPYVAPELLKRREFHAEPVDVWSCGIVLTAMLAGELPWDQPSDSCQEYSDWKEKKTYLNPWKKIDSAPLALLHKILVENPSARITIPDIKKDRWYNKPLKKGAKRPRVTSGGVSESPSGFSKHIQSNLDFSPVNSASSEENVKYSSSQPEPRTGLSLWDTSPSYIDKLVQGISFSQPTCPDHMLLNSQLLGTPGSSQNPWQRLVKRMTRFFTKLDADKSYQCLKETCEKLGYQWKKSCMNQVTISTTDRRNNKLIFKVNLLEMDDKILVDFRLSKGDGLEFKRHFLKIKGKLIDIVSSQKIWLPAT

[13] = target: DNA-dependent protein kinase catalytic subunit (Homo sapiens) (UniProt P78527); assay: Inhibition of PRKDC ATP labeling site harbouring KGGSWIQEINVAEKNWYPR in human Huh-7 cells at 1 uM by KiNativ Profiling analysis relative to control; format: cell-based
Chain of DNA-dependent protein kinase catalytic subunit (Homo sapiens) (P78527 whole entry): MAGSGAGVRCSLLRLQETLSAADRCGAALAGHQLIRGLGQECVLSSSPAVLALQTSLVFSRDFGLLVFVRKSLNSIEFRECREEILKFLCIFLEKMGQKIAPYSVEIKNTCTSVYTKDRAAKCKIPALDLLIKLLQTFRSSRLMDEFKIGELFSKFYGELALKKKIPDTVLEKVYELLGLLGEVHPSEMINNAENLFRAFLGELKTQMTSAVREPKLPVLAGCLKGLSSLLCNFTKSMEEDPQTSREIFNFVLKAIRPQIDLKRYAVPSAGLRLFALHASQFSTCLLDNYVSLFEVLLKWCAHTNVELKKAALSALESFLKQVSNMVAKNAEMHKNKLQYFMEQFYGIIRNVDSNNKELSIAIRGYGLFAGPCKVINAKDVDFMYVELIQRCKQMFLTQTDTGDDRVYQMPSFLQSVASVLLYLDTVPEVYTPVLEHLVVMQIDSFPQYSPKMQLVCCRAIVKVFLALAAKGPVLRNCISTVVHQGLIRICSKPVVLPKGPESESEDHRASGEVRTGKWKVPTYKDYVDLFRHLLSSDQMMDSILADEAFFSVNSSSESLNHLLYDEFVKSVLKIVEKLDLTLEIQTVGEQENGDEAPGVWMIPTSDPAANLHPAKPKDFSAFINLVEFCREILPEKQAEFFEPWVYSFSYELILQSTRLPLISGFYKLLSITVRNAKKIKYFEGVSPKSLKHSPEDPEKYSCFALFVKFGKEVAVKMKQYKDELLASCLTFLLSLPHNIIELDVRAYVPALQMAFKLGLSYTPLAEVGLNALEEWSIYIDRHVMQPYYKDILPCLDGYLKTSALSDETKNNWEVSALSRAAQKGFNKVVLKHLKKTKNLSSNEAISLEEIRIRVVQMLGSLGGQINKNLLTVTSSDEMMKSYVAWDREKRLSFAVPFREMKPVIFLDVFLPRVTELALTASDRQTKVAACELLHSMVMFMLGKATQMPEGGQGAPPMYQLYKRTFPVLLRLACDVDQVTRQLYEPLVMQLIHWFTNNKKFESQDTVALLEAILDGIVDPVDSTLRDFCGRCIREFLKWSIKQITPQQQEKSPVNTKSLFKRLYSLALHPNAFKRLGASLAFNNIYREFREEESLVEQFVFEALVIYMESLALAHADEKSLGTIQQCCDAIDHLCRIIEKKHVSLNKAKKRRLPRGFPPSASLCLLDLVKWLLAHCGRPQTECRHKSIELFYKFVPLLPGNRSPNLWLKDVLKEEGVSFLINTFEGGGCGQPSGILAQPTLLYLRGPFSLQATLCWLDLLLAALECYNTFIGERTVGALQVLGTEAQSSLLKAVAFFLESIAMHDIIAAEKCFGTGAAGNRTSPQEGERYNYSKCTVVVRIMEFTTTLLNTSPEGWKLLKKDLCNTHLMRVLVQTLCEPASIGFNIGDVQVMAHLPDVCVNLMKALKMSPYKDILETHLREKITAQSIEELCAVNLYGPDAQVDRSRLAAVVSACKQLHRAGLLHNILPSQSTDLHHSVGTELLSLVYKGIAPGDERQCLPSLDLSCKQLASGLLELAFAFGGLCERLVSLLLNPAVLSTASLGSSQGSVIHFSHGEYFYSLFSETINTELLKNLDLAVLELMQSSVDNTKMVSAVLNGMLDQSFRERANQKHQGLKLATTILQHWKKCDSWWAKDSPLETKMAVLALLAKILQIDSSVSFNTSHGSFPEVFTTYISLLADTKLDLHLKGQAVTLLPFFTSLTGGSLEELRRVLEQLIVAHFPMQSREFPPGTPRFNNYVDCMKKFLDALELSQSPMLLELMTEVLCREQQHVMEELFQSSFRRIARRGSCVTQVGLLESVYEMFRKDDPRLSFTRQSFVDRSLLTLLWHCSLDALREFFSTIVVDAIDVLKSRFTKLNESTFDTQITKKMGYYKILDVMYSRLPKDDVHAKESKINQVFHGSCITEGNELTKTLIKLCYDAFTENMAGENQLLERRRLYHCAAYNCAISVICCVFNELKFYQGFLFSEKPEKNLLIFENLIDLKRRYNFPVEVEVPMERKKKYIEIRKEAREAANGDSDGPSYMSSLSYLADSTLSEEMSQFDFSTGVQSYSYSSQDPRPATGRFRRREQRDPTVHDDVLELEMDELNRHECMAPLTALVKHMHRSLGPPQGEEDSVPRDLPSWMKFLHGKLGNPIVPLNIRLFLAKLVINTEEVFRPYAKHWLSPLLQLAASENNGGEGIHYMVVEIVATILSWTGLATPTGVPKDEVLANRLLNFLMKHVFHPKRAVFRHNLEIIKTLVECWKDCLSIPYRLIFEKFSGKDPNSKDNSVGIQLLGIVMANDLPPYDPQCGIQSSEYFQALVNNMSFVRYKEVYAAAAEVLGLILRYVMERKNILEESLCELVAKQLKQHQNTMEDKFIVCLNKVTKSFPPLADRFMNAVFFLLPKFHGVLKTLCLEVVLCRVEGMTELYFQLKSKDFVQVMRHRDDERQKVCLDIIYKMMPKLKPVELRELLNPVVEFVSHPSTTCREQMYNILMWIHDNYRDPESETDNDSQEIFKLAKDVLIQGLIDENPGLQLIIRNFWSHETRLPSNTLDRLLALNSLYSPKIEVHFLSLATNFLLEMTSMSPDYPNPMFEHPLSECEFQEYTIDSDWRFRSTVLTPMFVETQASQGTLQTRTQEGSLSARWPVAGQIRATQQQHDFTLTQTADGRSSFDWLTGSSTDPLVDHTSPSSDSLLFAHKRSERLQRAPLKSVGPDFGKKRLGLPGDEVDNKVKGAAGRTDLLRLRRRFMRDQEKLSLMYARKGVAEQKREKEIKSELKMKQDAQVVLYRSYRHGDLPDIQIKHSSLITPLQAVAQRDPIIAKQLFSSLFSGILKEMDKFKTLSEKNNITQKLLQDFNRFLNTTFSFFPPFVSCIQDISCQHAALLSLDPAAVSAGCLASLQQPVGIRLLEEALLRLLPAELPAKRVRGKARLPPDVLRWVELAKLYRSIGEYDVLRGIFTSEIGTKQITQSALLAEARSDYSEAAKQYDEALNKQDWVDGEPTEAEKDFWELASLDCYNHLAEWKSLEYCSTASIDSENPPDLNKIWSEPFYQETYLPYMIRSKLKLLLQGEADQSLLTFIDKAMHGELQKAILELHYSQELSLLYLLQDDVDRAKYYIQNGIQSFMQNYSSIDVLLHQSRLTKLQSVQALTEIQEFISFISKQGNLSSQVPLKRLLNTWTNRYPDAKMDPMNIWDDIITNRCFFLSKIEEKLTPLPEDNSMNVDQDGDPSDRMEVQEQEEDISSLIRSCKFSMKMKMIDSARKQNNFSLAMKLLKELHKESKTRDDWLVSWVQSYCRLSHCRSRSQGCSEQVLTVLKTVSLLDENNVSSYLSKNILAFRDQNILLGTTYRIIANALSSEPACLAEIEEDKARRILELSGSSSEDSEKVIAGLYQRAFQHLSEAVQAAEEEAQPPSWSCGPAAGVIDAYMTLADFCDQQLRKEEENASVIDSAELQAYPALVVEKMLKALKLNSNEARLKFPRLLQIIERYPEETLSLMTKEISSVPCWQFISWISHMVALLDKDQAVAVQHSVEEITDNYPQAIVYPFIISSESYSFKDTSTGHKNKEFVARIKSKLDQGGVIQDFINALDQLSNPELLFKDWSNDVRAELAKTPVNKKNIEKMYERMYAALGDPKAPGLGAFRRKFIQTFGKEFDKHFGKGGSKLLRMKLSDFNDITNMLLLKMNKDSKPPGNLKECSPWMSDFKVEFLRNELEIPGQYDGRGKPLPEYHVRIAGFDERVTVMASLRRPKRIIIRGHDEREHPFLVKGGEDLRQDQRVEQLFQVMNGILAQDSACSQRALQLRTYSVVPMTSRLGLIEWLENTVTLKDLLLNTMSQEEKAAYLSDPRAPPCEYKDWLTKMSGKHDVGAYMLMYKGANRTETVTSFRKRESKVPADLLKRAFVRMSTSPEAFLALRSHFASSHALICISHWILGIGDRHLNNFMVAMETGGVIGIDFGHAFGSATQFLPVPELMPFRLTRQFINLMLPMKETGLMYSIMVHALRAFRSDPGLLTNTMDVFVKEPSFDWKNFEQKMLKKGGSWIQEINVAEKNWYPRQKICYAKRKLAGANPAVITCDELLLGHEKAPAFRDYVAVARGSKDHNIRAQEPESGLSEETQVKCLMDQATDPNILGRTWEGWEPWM

[14] = target: Microtubule-associated serine/threonine-protein kinase 1 (Homo sapiens) (UniProt Q9Y2H9); assay: Inhibition of MAST1 Lys2 labeling site in human A-375 cells at 0.5 uM by KiNativ Profiling analysis relative to control
[15] = target: Tyrosine-protein kinase JAK3 (Homo sapiens) (UniProt P52333); assay: Inhibition of JAK3 JH1catalytic domain (unknown origin) at 10 uM by Ambit Kinomescan binding assay relative to control; values are per cent of control

Question: With `CNc1cc(Oc2cc(C(=O)Nc3cc(N4CCN(C)CC4)cc(C(F)(F)F)c3)ccc2C)ncn1` as the compound, how does the inhibition [1] read?
Answer: 8.6%

Question: What about the inhibition [2] of the same compound?
Answer: -8.3%

Question: How did the inhibition [3] turn out when `CCN1CCN(Cc2ccc(NC(=O)c3ccc(C)c(/C=C/c4cnc5[nH]ccc5c4OC)c3)cc2C(F)(F)F)CC1` was run?
Answer: -0.7%

Question: What about the inhibition [4] of the same compound?
Answer: -10%

Question: What about the residual activity [5] of the same compound?
Answer: 100%

Question: With `CCN1CCN(Cc2ccc(NC(=O)c3ccc(C)c(Oc4ccnc5[nH]ccc45)c3)cc2C(F)(F)F)CC1` as the compound, how does the inhibition [6] read?
Answer: inactive

Question: What about the inhibition [7] of the same compound?
Answer: inactive

Question: What about the inhibition [8] of the same compound?
Answer: inactive

Question: What about the inhibition [9] of the same compound?
Answer: inactive

Question: And the inhibition [10]?
Answer: 1.3%

Question: And the inhibition [11]?
Answer: 88.5%

Question: And the inhibition [12]?
Answer: 3.5%

Question: What about the inhibition [13] of the same compound?
Answer: 30.8%

Question: What about the inhibition [14] of the same compound?
Answer: 16.1%

Question: And the percent of control [15]?
Answer: 2.4%
